Reference: ChEMBL document CHEMBL3046418, “Synthesis and Herbicidal Activity of Sulfonylurea Compounds with Imidazo [1, 2-a] pyridine Moiety” (2001)

Columns and labels:
Format in all cases: functional
[1] = system: Triticum aestivum; assay: Phytotoxic activity against Triticum aestivum (wheat) after 3 weeks by post-emergence greenhouse test; design: concentration or dose not given beside the values
[2] = system: Matricaria chamomilla; assay: Herbicidal activity against Matricaria chamomilla after 4 weeks by pre-emergence greenhouse test; design: concentration or dose not given beside the values
[3] = system: Matricaria chamomilla; assay: Herbicidal activity against Matricaria chamomilla after 3 weeks by post-emergence greenhouse test; design: concentration or dose not given beside the values
[4] = system: Mutarda arvensis; assay: Herbicidal activity against Sinapis arvensis after 4 weeks by pre-emergence greenhouse test; design: concentration or dose not given beside the values
[5] = system: Chenopodium album; assay: Herbicidal activity against Chenopodium album after 4 weeks by pre-emergence greenhouse test; design: concentration or dose not given beside the values
[6] = system: Bromus tectorum; assay: Herbicidal activity against Bromus tectorum after 4 weeks by pre-emergence greenhouse test; design: concentration or dose not given beside the values
[7] = system: Chenopodium album; assay: Herbicidal activity against Chenopodium album after 3 weeks by post-emergence greenhouse test; design: concentration or dose not given beside the values
[8] = system: Triticum aestivum; assay: Phytotoxic activity against Triticum aestivum (wheat) after 4 weeks by pre-emergence greenhouse test
[9] = system: Stellaria media; assay: Herbicidal activity against Stellaria media after 3 weeks by post-emergence greenhouse test; design: concentration or dose not given beside the values
[10] = system: Alopecurus myosuroides; assay: Herbicidal activity against Alopecurus myosuroides after 4 weeks by pre-emergence greenhouse test; design: concentration or dose not given beside the values
[11] = system: Stellaria media; assay: Herbicidal activity against Stellaria media after 4 weeks by pre-emergence greenhouse test; design: concentration or dose not given beside the values
[12] = system: Mutarda arvensis; assay: Herbicidal activity against Sinapis arvensis after 3 weeks by post-emergence greenhouse test; design: concentration or dose not given beside the values
[13] = system: Alopecurus myosuroides; assay: Herbicidal activity against Alopecurus myosuroides after 3 weeks by post-emergence greenhouse test; design: concentration or dose not given beside the values
[14] = system: Avena fatua; assay: Herbicidal activity against Avena fatua after 4 weeks by pre-emergence greenhouse test; design: concentration or dose not given beside the values
[15] = system: Bromus tectorum; assay: Herbicidal activity against Bromus tectorum after 3 weeks by post-emergence greenhouse test; design: concentration or dose not given beside the values
[16] = system: Avena fatua; assay: Herbicidal activity against Avena fatua after 3 weeks by post-emergence greenhouse test; design: concentration or dose not given beside the values

CCS(=O)(=O)c1nc2ccccn2c1S(=O)(=O)NC(=O)Nc1nc(C)cc(C)n1
1%: Activity [1] | Activity [2] | Activity [3] | Activity [5] | Activity [6] | Activity [9]
0%: Phytotoxicity [8] | Activity [10] | Activity [11] | Activity [14]
76%: Activity [12]
51%: Activity [4] | Activity [7] | Activity [13] | Activity [15] | Activity [16]

CCS(=O)(=O)c1nc2ccccn2c1S(=O)(=O)NC(=O)Nc1nc(Cl)cc(OC)n1
51%: Activity [2] | Activity [13] | Activity [15]
76%: Activity [4]
1%: Activity [3] | Activity [6] | Activity [7] | Activity [9] | Activity [10] | Activity [11] | Activity [16]
0%: Activity [1] | Activity [5] | Phytotoxicity [8] | Activity [14]
100%: Activity [12]

COc1cc(OC)nc(NC(=O)NS(=O)(=O)c2c(S(=O)(=O)c3ccccc3)nc3ccccn23)n1
1%: Activity [2] | Activity [3] | Activity [4] | Activity [9]
51%: Activity [12]
0%: Activity [1] | Activity [5] | Activity [6] | Activity [7] | Phytotoxicity [8] | Activity [10] | Activity [11] | Activity [13] | Activity [14] | Activity [15] | Activity [16]

COc1cc(OC)nc(NC(=O)NS(=O)(=O)c2c([S+]([O-])c3ccccc3)nc3ccccn23)n1 (stereo unspecified)
51%: Activity [12]
1%: Activity [2] | Activity [3] | Activity [4] | Activity [9] | Activity [13] | Activity [15]
0%: Activity [1] | Activity [5] | Activity [6] | Activity [7] | Phytotoxicity [8] | Activity [10] | Activity [11] | Activity [14] | Activity [16]

COc1cc(OC)nc(NC(=O)NS(=O)(=O)c2c(Sc3ccccc3)nc3ccccn23)n1
51%: Activity [2] | Activity [12]
0%: Activity [5] | Activity [6] | Activity [7] | Phytotoxicity [8] | Activity [10] | Activity [11] | Activity [13] | Activity [14] | Activity [15] | Activity [16]
1%: Activity [1] | Activity [3] | Activity [4] | Activity [9]

COc1cc(OC)nc(NC(=O)NS(=O)(=O)c2c(S(=O)(=O)C(C)C)nc3ccccn23)n1
51%: Activity [3] | Activity [6] | Activity [11] | Activity [12] | Activity [15]
1%: Activity [7] | Activity [14] | Activity [16]
88%: Activity [2] | Activity [4] | Activity [10] | Activity [13]
76%: Activity [5] | Activity [9]
0%: Activity [1] | Phytotoxicity [8]

COc1cc(OC)nc(NC(=O)NS(=O)(=O)c2c([S+]([O-])C(C)C)nc3ccccn23)n1 (stereo unspecified)
1%: Activity [2] | Activity [3] | Activity [4] | Activity [7] | Activity [9] | Activity [12] | Activity [13] | Activity [15]
0%: Activity [1] | Activity [5] | Activity [6] | Phytotoxicity [8] | Activity [10] | Activity [11] | Activity [14] | Activity [16]

COc1cc(OC)nc(NC(=O)NS(=O)(=O)c2c(SC(C)C)nc3ccccn23)n1
51%: Activity [3] | Activity [12]
0%: Activity [1] | Activity [6] | Phytotoxicity [8] | Activity [10] | Activity [11] | Activity [14] | Activity [16]
1%: Activity [4] | Activity [5] | Activity [7] | Activity [9] | Activity [13] | Activity [15]
88%: Activity [2]

CCCS(=O)(=O)c1nc2ccccn2c1S(=O)(=O)NC(=O)Nc1nc(OC)cc(OC)n1
1%: Activity [6] | Activity [16]
51%: Activity [3] | Activity [4] | Activity [15]
88%: Activity [2]
76%: Activity [9] | Activity [10] | Activity [11] | Activity [12] | Activity [13]
0%: Activity [1] | Activity [5] | Activity [7] | Phytotoxicity [8] | Activity [14]

CCC[S+]([O-])c1nc2ccccn2c1S(=O)(=O)NC(=O)Nc1nc(OC)cc(OC)n1 (stereo unspecified)
76%: Activity [2]
51%: Activity [9] | Activity [12]
0%: Activity [1] | Activity [5] | Activity [6] | Phytotoxicity [8] | Activity [10] | Activity [11] | Activity [14] | Activity [16]
1%: Activity [3] | Activity [4] | Activity [7] | Activity [13] | Activity [15]

CCCSc1nc2ccccn2c1S(=O)(=O)NC(=O)Nc1nc(OC)cc(OC)n1
0%: Activity [1] | Activity [3] | Activity [5] | Activity [6] | Activity [7] | Phytotoxicity [8] | Activity [11] | Activity [14] | Activity [16]
51%: Activity [12]
1%: Activity [4] | Activity [9] | Activity [10] | Activity [13] | Activity [15]
88%: Activity [2]

CC[S+]([O-])c1nc2ccccn2c1S(=O)(=O)NC(=O)Nc1nc(OC)cc(OC)n1 (stereo unspecified)
51%: Activity [12] | Activity [15]
88%: Activity [2]
0%: Activity [1] | Activity [6] | Phytotoxicity [8] | Activity [14] | Activity [16]
1%: Activity [4] | Activity [5] | Activity [7] | Activity [9] | Activity [10] | Activity [11] | Activity [13]
76%: Activity [3]

CCSc1nc2ccccn2c1S(=O)(=O)NC(=O)Nc1nc(OC)cc(OC)n1
76%: Activity [12]
88%: Activity [2]
51%: Activity [3] | Activity [4] | Activity [10] | Activity [13]
0%: Activity [1] | Activity [6] | Phytotoxicity [8] | Activity [11] | Activity [14]
1%: Activity [5] | Activity [7] | Activity [9] | Activity [15] | Activity [16]

COc1cc(OC)nc(NC(=O)NS(=O)(=O)c2c(S(C)(=O)=O)nc3ccccn23)n1
0%: Phytotoxicity [8]
1%: Activity [1] | Activity [5] | Activity [7] | Activity [14] | Activity [16]
51%: Activity [11]
88%: Activity [2] | Activity [3] | Activity [12]
76%: Activity [6] | Activity [9] | Activity [10] | Activity [13] | Activity [15]
100%: Activity [4]

COc1cc(OC)nc(NC(=O)NS(=O)(=O)c2c([S+](C)[O-])nc3ccccn23)n1 (stereo unspecified)
0%: Activity [1] | Activity [5] | Activity [6] | Activity [7] | Phytotoxicity [8] | Activity [9] | Activity [10] | Activity [11] | Activity [13] | Activity [14] | Activity [16]
1%: Activity [15]
51%: Activity [2] | Activity [4]
76%: Activity [3] | Activity [12]

COc1cc(OC)nc(NC(=O)NS(=O)(=O)c2c(SC)nc3ccccn23)n1
1%: Activity [4] | Activity [9] | Activity [10] | Activity [13] | Activity [15]
76%: Activity [3]
88%: Activity [2] | Activity [12]
51%: Activity [5] | Activity [11]
0%: Activity [1] | Activity [6] | Activity [7] | Phytotoxicity [8] | Activity [14] | Activity [16]
